Measurements taken from patent US11673891B2, “Imidazopyrimidine compounds and uses thereof” (Dana-Farber Cancer Institute, Inc., priority 2017, dated 2023).
Entries after “also recorded” stand apart in the source; their conditions may differ.

What was measured:
[1] = test system: Splenocytes isolated from 6-8 weeks old C57BL/6 mice; assay: Mouse splenocyte in vitro stimulation, murine IL-6 by ELISA; assay type: cell-based; settings: C57BL/6 splenocytes, 33 μM, 18 hours
Protocol: Splenocytes isolated from 6-8 weeks old C57BL/6 mice and human adult PBMCs were stimulated for 18 hours with compound 037 and its analogs at 33 μM. Production of murine IL-6 and human TNF was assessed in cell-free supernatants by ELISA. Results are presented as scatter plot in which each dot represents median production of human TNF (N=3-5) or murine IL-6 (N=6) for each compound.
Spleens were harvested from 6-8 weeks old C57BL/6 mice. For splenocyte isolation, spleens were mashed through a […] strainer, washed with PBS, and erythrocytes were lysed with 2 min of incubation in ammonium chloride-based lysis buffer (BD Biosciences). Cells were then counted and plated 2×10^6 per well (round bottom 96-well plate) in 200 μl of complete culture medium (RPMI 1640 plus 10% heat-inactivated fetal bovine serum [FBS, GE Healthcare HyClone], 50 μM 2-mercaptoethanol, 2 mM 1-glutamine, 100 U/ml penicillin/streptomycin [Gibco ThermoFisher Scientific]) with 0.66 μl of DMSO-dissolved compounds (10 mM) in order to achieve a final compound concentration of 33 μM. After 18 hours of incubation (37° C., 5% CO2), plates were spun down (500×g, room temperature, 5 minutes) and supernatants were harvested for further analysis.

human adult PBMCs = assay: TNF production by ELISA after stimulation of human adult PBMCs; assay type: cell-based; settings: 33 μM, 18 hours
Protocol: Table 1. Activity of Exemplary Imidazopyrimidine Compounds on Stimulating TNF Production in PBMCs as Compared to Compound R848 Table 1 provides the activity of exemplary compounds on stimulating TNF production in PBMCs as compared to the benchmark compound R848. Specifically, TNF production was measured by ELISA after stimulation of adult PBMCs with compound 037 analog family or the compound R848 at 33 μM for 18 hours. Analogs are ranked top to bottom by median percentage TNF production (TNF %) as compared to R848 (N=3-5). The compounds have been classified in the following categories according to TNF %: high activity—class A: TNF %>15%; medium activity—class B: 1%<TNF %≤15%; low activity—class C: TNF %≤1%.
ELISAs and Multiplex-Analyte Assays. Supernatants derived from human PBMCs and DC stimulations were assayed by ELISA for TNF (ThermoFisher Scientific; Waltham, Mass., USA). Cytokine and chemokine expression profiles (e.g., IFNγ, IL-9, IL-10, IL-12 (p70), IL-13, IL-1β, IL-23, IL-27, IL-28A, IL-33, IL-6, MIP-3α/CCL20, and TNF) in cell culture supernatants were measured using a customized Milliplex® Human Th17 Magnetic Bead Panel according to the manufacturer's instructions (Millipore, Chicago, Ill., USA). Assays were read and analyzed on the Luminex® 100/200™ System and xPOTENT® software (Luminex, Austin, Tex.). A minimum threshold was set at the minimum detectable concentration for each individual assay, defined as three standard deviations above the mean background.
PBMCs were isolated from blood using a Ficoll density gradient. PBMCs either used fresh or were stored at 5×10^7 cells per vial in 1 mL RPMI containing 20% autologous plasma and 10% DMSO at −80° C. until use. Stimulation plates were prepared by transferring 0.66 μl of DMSO-dissolved compounds (10 mM) to each well of a round bottom 96-well plate. PBMCs isolated from human adult donors were resuspended at a concentration of 10^5 cells/200 μl of RPMI supplemented with 10% of platelet-poor plasma. 200 μl of the cell suspension were transferred to each well resulting in a final compound concentration of […]. After about 18 hours of incubation (37° C., 5% CO2), plates were spun down (500×g, room temperature, 5 minutes) and supernatants were harvested for further analysis.

## Cc1cnc2nc(-c3ccc(C)c(NC(=O)c4ccccc4C(F)(F)F)c3)cn2c1 [FRF-02-144-3]
[1]
  Production of murine IL-6 by splenocytes (in words): activates both human PBMCs and mouse splenocytes; also recorded: active on both human and murine cells
Human adult PBMCs; adult PBMCs, ELISA, median, N=3-5, unit not given (FIG. 6B/7B legends: TNF concentration in ng/ml)
  TNF (Median): 5.397
Human adult PBMCs; class according to TNF % as compared to R848, adult PBMCs
  Activity class: A (high activity—class A: TNF %>15%)
Human adult PBMCs; human adult PBMCs, ELISA
  Production of human TNF by PBMCs (in words): activates both human PBMCs and mouse splenocytes; also recorded: active on both human and murine cells
Human adult PBMCs; median percentage TNF production as compared to R848, adult PBMCs, N=3-5
  TNF % (Median): 99.81%
